One data set relates to LN229. The experiment in a line: cells. The data set is classed as cell-based. Particulars: Homo sapiens, LN-229, read-out: IC50 (in vitro toxicity).
In the next data set the test system is G55. The experiment in a line: cells. Particulars: read-out: IC50 (in vitro toxicity). Format: cell-based.
A further data set has as its system 794. The experiment in a line: cells. Format: cell-based. Particulars: read-out: IC50 (in vitro toxicity).
The next data set concerns D283. The experiment in a line: cells. Format: cell-based. Particulars: D283, read-out: IC50 (in vitro toxicity).
A further data set has as its system HCT116. The data set can be described thus: In vitro cytotoxicity, HCT116. The data set is classed as cell-based. Particulars: Homo sapiens, HCT-116, read-out: IC50 (in vitro toxicity).
The next data set deals with MDA-MB-231. The experiment in a line: cells. The data set is classed as cell-based. Particulars: Homo sapiens, MDA-MB-231, read-out: IC50 (in vitro toxicity).
Another data set deals with MV411. The data set can be described thus: cells. Particulars: Homo sapiens, MV4-11, read-out: IC50 (in vitro toxicity). Format: cell-based.
In a further data set the test system is Raji. The experiment in a line: cells. Particulars: Homo sapiens, read-out: IC50 (in vitro toxicity). Format: cell-based.
For another data set, the system named is MM1.S. The data set can be described thus: cells. Format: cell-based. Particulars: Homo sapiens, read-out: IC50 (in vitro toxicity).
A further data set has as its system KMS11. The experiment in a line: cells. The data set is classed as cell-based. Particulars: Homo sapiens, KMS-11, read-out: IC50 (in vitro toxicity).
The next data set has as its system 1334. The experiment in a line: In vitro cytotoxicity, 1334. Format: cell-based. Particulars: read-out: IC50 (in vitro toxicity).
A further data set deals with PC3 tumors. The data set can be described thus: Prostate cancer xenograft study, large tumor study. The data set is classed as in vivo, mouse. As to the method: PC3 tumors were implanted into mice and the study was initiated after the volume of the tumors was 500 mm^3. Five (5) mg/kg compound (5) was administered by IP injection three times per week for two weeks. The tumor size, body weight, white cell count, and granulocyte count were measured.
In a counterpart study, mice in which the PC3 tumor size was at least 500 mm^3 were administered either 7.5 mg/kg or 10 mg/kg compound (5) three times a week for four weeks. In these studies, the mice were first administered a dose of either 2.5 mg/kg or 1.25 mg/kg, three times per week for three weeks. The tumor size, body weight, white cell count, and granulocyte count were measured. The tumor volume for the 7.5 mg/kg dosing regimen is resented in FIGS. 8A-8D, and for the 10 mg/kg dosing regimen in FIGS. 9A-9D.

A further data set deals with U266. The data set can be described thus: Orthotopic multiple myeloma study. Particulars: mouse, in vivo. As to the method:
The efficacy of compounds provided by the present disclosure was evaluated using an orthotopic luciferase human multiple myeloma model—U266. Human multiple myeloma cells were IV injected (1×10^6 cells) into NSG mice (female, 5-6 weeks-old, Jackson Labs). Treatment began when the BLI reached a log-phase growth, at about 12 to 14 days after injection. Nine mice were assigned to each arm of the study. The mice were dosed with vehicle (IP, once weekly for 3 weeks), bortezomid (BTZ, 0.8 mg/kg, IP twice weekly for 3 weeks), compound (5) (5 mg/kg, IV once weekly for 3 weeks), or compound (5) (10 mg/kg, IV once weekly for 3 weeks). The tumor volume was measured using bioluminescence imaging.

Data set [1] concerns LLCPK cells conditionally expressing hLAT1.
Data set [2] shares this test system. The data set can be described thus: cells. Particulars: 0.5 h, read-out: LC50, concentration of test compound at which the percent surviving cells was 50%.
In a further data set the test system is mouse melanoma cells. The data set can be described thus: Mouse melanoma efficacy in syngeneic mice.
Setting [3] is: 5 mg/kg IP three times per week for two weeks.
The mark [4] stands for this setting: 7.5 mg/kg or 10 mg/kg dosing regimens.

The structures appear in SMILES notation.

For `Cc1ccc(N(CCCl)CCCl)cc1C[C@H](N)CC(=O)O` [Compound 5, (3S)-3-Amino-4-[5-[bis(2-chloroethyl)amino]-2-methyl-phenyl]butanoic Acid], the IC50 in the data set with LN229, in the data set with G55, in the data set with 794, in the data set on D283, in the data set on HCT116 and in the data set on MDA-MB-231 was less than 100 µM each time. Moreover, the IC50 in the data set on MV411 is less than 100 µM; with Raji it was less than 100 µM; with MM1.S it was less than 100 µM; in the data set with KMS11, more than 100 µM; in the data set on 1334 it was less than 100 µM. Further, the body weight result with PC3 tumors (setting [3]) was “decreased”. Further, the “cell counts (white cell, granulocyte)” value in the data set with PC3 tumors (setting [3]) and in the data set on PC3 tumors (setting [4]) was “remained within the normal range” throughout. For the same compound, the body weights result in the data set with PC3 tumors (setting [4]) is given as “remained about the same”. In addition, the “tumor growth rate, large tumors” value in the data set on PC3 tumors (tumors 500 mm3, 5 mg/kg IP three times per week for two weeks) was “growth rate slowed for some large tumors”. In addition, the “PC3 tumor growth, large tumors” value in the data set with PC3 tumors (tumors at least 500 mm3, 7.5 mg/kg or 10 mg/kg three times a week for four weeks) is “slowed in many of the animals and in some the size of the tumor decreased”. For the same compound, in the data set on U266, the “multiple myeloma tumor growth (bioluminescence imaging)” value was “dose-dependent suppression of multiple myeloma tumor growth”. The “IC50, S isomer compared with R isomer” value in [1] was “significantly less than the IC50 of the R isomer”. In addition, the CC50 in data set [2] is less than 1000 nM. Besides, the “tumor growth after end of dosing” value with mouse melanoma cells (after dosing ended at 12 days) is listed as “Tumors began to grow”. Also, the tumor growth result in the data set with mouse melanoma cells (dosed daily for 12 days) is reported as “suppressed tumor growth”. Also, the “white blood cell count” value in the data set on mouse melanoma cells (during treatment) is listed as “remained within the normal range”.

For the origin of these results see US10017459B2, “β-substituted β-amino acids and analogs as chemotherapeutic agents and uses thereof” (Quadriga Biosciences, Inc., priority 2015, dated 2018).
